Earlier results as cited in patent US11857553B2, “Chromium containing compositions for improving health and fitness” (NUTRITION 21, LLC, priority 2016, dated 2024).

Tests used:
chromium absorption = conditions: orally administered CrCl3
[1] = rats, several thousand times the upper limit of the ESADDI for chromium for humans

| Molecule | effect on chromium absorption (chromium absorption) | toxicity [1] |
| --- | --- | --- |
| CC(=O)Oc1ccccc1C(=O)O [aspirin] | facilitate chromium absorption | – |
| [Cl][Cr]([Cl])[Cl] [chromium chloride] | – | without toxic effects |
| COc1ccc2c(c1)c(CC(=O)O)c(C)n2C(=O)c1ccc(Cl)cc1 [indomethacin] | facilitate chromium absorption | – |
| chromium picolinate | – | without toxic effects |
